Measured values as given in patent US6924288B2, “Enantiomerically pure opioid diarylmethylpiperzine and methods of using same” (priority 2001, dated 2005).

Tests used:
μ opioid receptor = target: T1, μ opioid receptor (Rattus norvegicus, UniProt P33535); assay: Radioligand binding, [3H]DAMGO competition, rat brain membranes; conditions: rat brain membranes, [3H]DAMGO; read-out: Rat Brain Membrane K1 (nM) μ
T1 construct: tissue Pel-Freeze Biological Inc. (Rogers, Ark.); host or cells: rat whole brain membranes
Description: (§1) Two stereoisomerically related racemic mixtures and inclusive enantiomers were evaluated for in vitro opioid receptor affinity in rat brain membranes (μ and δ opioid) and guinea pig cerebellum (κ opioid receptor). Membranes for radioligand binding were prepared from either rat whole brain or guinea pig cerebellum, supplied by Pel-Freeze Biological Inc. (Rogers, Ark.). Tissues were homogenized in 50 mM TRIS (Tris[hydrooxymethyl]aminomethane) buffer (pH 7.4) containing 50 ug/ml soybean trypsin inhibitor, 1 mM EDTA (Ethylenediaminetetraacetic acid), and 100 μM PMSF (Phenylmethylsulfonyl fluoride). The homogenized brain tissues were centrifuged at 500×g for 30 minutes (4° C.) to remove large debris. The supernatant was polytronically sonicated for 10 seconds (P.E. setting of 2, 4° C.). Sucrose solution was then added to a final concentration of 0.35 M using a 10 mM TRIS-Sucrose buffer (pH 7.4) and the brain membranes were then centrifuged at 40,000×g for 30 minutes (4° C.). The membrane pellets were then washed twice in 10 mM TRIS buffer (pH 7.4) containing 50 μg/ml soybean trypsin inhibitor, 1 mM EDTA, and 100 μM PMSF.
(§2) Radioligand binding assays were performed in 10 mM TRIS buffer (pH 7.4) containing 50 μg/ml soybean trypsin inhibitor, 1 mM EDTA, 5 mM MgCl2, and 100 μM PMSF. Tritium-labeled DAMGO (μ), Deltorphin II (δ), or U69593 (κ) purchased from New England Nuclear were used as ligands in competitive experiments (2-3×10^−10 M final concentrations) with non-specific binding defined by 0.5×10^−6 M Naloxone (purchased from SIGMA Chemical Co.). All binding assays were run at room temperature for 90 minutes and then terminated by rapid filtration on GF/C glass fiber filters (Whatman, Hillsboro, Oreg.) with 50 mM TRIS buffer (4° C., pH 7.4) employing a Brandel Semi-automatic Cell Harvester (Model M48, Brandel, Gaithersburg, Md.). The filters were washed twice with 50 mM TRIS buffer (4° C., pH 7.4) and the filters were placed in liquid scintillation cocktail and the bound radioactivity counted on a Beckman LS 6500 scintillation counter. The potency of the compounds in inhibiting the binding of radiolabelled DAMGO (μ), Deltorphin II (δ), or U69593 (κ) was determined from full concentration-effect curves. With the computer program Prism (GraphPad Software Inc., San Diego, Calif.) the IC50 values were determined using a one-site nonlinear regression analysis of the radioligand binding data. The IC50 values were then converted to Ki values using the Cheng-Prusoff equation. (Cheng Y and Prusoff W H (1973) Relationship between the inhibition constant (K1) and the concentration of inhibitor which causes 50 percent inhibition (I50) of a enzymatic reaction. Biochem Pharm 22:3099-3108.)

δ opioid receptor = target: T2, δ opioid receptor (Rattus norvegicus, UniProt P33533); assay: Radioligand binding, [3H]Deltorphin II competition, rat brain membranes; conditions: read-out: Rat Brain Membrane K1 (nM) δ
T2 construct: tissue Pel-Freeze Biological Inc. (Rogers, Ark.); host or cells: rat whole brain membranes
Description: as §1, §2

κ opioid receptor = target: T3, κ opioid receptor (Cavia porcellus, UniProt P41144); assay: Radioligand binding, [3H]U69593 competition, guinea pig cerebellum membranes; conditions: read-out: Guinea Pig Brain Membrane K1 (nM) κ
T3 construct: tissue Pel-Freeze Biological Inc. (Rogers, Ark.); host or cells: guinea pig cerebellum membranes
Description: as §1, §2

[1] = target: T4, Mu receptor, mouse vas deferens (Mus musculus, UniProt P42866); assay: Mouse vas deferens, inhibition of electrically induced contractions, mu (with TIPP and nor-BNI); type: cell-based; conditions: in presence of 3 μM TIPP and 15 nM nor-BNI; read-out: Mouse Vas Deferens ED50 (nM) μ
T4 construct: Mouse vasa deferentia (MVD), CD-1 strain, Harlan, Raleigh, N.C.) were removed from mice; tissue Harlan, Raleigh, N.C; (animals); host or cells: mouse vas deferens, CD-1 strain

[2] = target: T5, Delta receptor, mouse vas deferens (Mus musculus, UniProt P32300); assay: Mouse vas deferens, inhibition of electrically induced contractions, delta; type: cell-based; conditions: read-out: Mouse Vas Deferens ED50 (nM) δ
T5 construct: Mouse vasa deferentia (MVD), CD-1 strain, Harlan, Raleigh, N.C.) were removed from mice; tissue Harlan, Raleigh, N.C; (animals); host or cells: mouse vas deferens, CD-1 strain
Description: The compound of formula (I) and compounds 1, 3, 4, 5 and 6 as identified above, were evaluated for in vitro opioid receptor activity in various receptor systems, including mouse vas deferens (Mouse Vas Deferens ED50), and guinea pig ileum (Guinea Pig Ileum ED50). The assay procedures used for such determinations of receptor activity are set out below.
In vitro bioassays: Mouse vasa deferentia (MVD), CD-1 strain, Harlan, Raleigh, N.C.) were removed from mice and suspended between platinum electrodes with 0.5 g of tension in organ bath chambers containing a modified Mg^++ free Krebs buffer of the following composition (millimolar): NaCl, 117.5; KCl, 4.75; CaCl2, 2.6; KH2PO4, 1.20; NaHCO3, 24.5; and glucose, 11. The buffer was saturated with 95% O2/5% CO2 and kept at 37° C. Tissues were stimulated at supramaximal voltage with 10-Hz pulse trains for 400-msec.; train interval 10 seconds; and 1.0 msec pulse duration at maximal voltage. Delta receptor activity was determined by adding appropriate concentrations of test compound to organ baths and allowing a maximal response before addition of the next higher concentration.
The ED50 values were extrapolated from curves showing the dose concentration plotted against the response (J. A. H. Lord, A. A. Waterfield, J. Hughes, H. W. Kosterlitz, Nature 267, 495, (1977)).

rats [3] = assay: Tail pinch test for analgesia in rats; type: in vivo; conditions: rat; for Analgesia (delay of response to tail pinch): 0.30 mg/kg i.v., cutoff 20 sec; for Analgesic effect in words: i.v., FIGS. 1-6; for Analgesic effect in words / ED50: tail pinch; for ED50: intravenous, 20 sec cutoff
Description: (§3) Analgesia was assayed in rats using the tail pinch test with simultaneous monitoring of capillary blood gases (pCO2). During this testing period respiratory depression values were also obtained. Male rats (Wistar Hannover 200-300 g) were anesthetized with 2% isoflurane (J. A. Webster, Inc., Sterling, Mass. The femoral artery was cannulated with PE50 tubing for blood sampling. The external jugular vein was also cannulated with Silastic tubing for drug injection. After surgery, anesthetic gases were removed and the rat was allowed to rest in a plastic restrainer for 60 minutes to establish baseline values of blood gases.
(§4) The compounds 1-6 were administered intravenous. Nociceptive response and respiratory values were obtained for a 1-2 hour period. The femoral artery cannulation was used to draw arterial blood into a syringe pre-wetted with heparin. Samples were then analyzed with a blood gas analyzer (Ph/Gas Analyzer Synthesis 25 Model, Instrumentation Laboratory) to assess respiratory depression effects. The volume of blood taken each time was 0.15 cc. The syringes were capped immediately and the blood gases analyzed within 5 minutes. The blood exposed to air at the tip of the syringe was expelled. The blood was mixed by gentle inversion and an aliquots of 0.10 cc was injected into the blood gas analyzer.
An artery clamp was placed on the tail (one inch from the tip of the tail) for a short duration until an escape response occurred (i.e. tail-flick or vocalization). The escape response latency was recorded by means of a stopwatch. A cutoff time of 20 sec. was used to prevent unnecessary tissue damage. […] The elapsed time to elicit a pain response was recorded as the tail pinch latency in seconds. Blood gases were monitored at approximately the same time points as the tail pinch test.
(§5) The ED50 values for analgesia potency and respiratory depression were determined to calculate the safety or therapeutic ratio, which is defined as the respiratory depression ED50 divided by analgesia ED50.

[4] = Respiratory depression by blood gas (pCO2) monitoring in rats; type: in vivo; conditions: male, Wistar Hannover, in vivo; rat, intravenous
Description: as §3, §4
(§6) The gas analyzer was well maintained and operated. Calibrations (low, normal and high) were done at the beginning of every day of testing. The sample lines, co-oximeter and the blood gas electrode were cleaned regularly at the end of every day of testing. Hematocrit calibration (high and low) was scheduled on a weekly basis and tubing, sample and pinch valve were replaced on a monthly basis.
as §5

rats [5] = assay: as above; type: in vivo; conditions: rat; for Respiratory Depression % Units Baseline pCO2: 0.30 mg/kg i.v.; for Effect on blood pCO2 levels in words / Mortality due to respiratory depression: i.v.; for Safety Ratio (respiratory depression ED50 divided by analgesia ED50): intravenous
Description: as §3, §4, §6, §5

| SMILES | Ki (μ opioid receptor) [nM] | Ki (δ opioid receptor) [nM] | Ki (κ opioid receptor) [nM] | EC50 [1] [nM] | EC50 [2] [nM] | Analgesia (delay of response to tail pinch) (rats [3]; 4 min.) [s] | Analgesia (delay of response to tail pinch) (rats [3]; 8 min.) [s] | Analgesia (delay of response to tail pinch) (rats [3]; 32 min.) [s] | Analgesic effect in words (rats [3]) | ED50 (rats [3]) [mg/kg] | ED50 [4] [mg/kg] | Respiratory Depression % Units Baseline pCO2 (rats [5]; 4 min.) [%] | Respiratory Depression % Units Baseline pCO2 (rats [5]; 8 min.) [%] | Respiratory Depression % Units Baseline pCO2 (rats [5]; 32 min.) [%] | Effect on blood pCO2 levels in words (rats [5]) | Mortality due to respiratory depression (rats [5]) | Safety Ratio (respiratory depression ED50 divided by analgesia ED50) (rats [5]) |
| --- | --- | --- | --- | --- | --- | --- | --- | --- | --- | --- | --- | --- | --- | --- | --- | --- | --- |
| C=CCN1C[C@@H](C)N([C@@H](c2ccsc2)c2cccc(O)c2)C[C@@H]1C [Compound 3, (+)3-((R)-((2R,5S)-4-allyl-2,5-dimethyl-1-piperazinyl)(3-thienyl)methyl)phenol] | 658 | 744 | 100 | > 1000 | > 1000 | 0 | 0 | 0 | no measurable analgesic effect | > 6 | > 6 | 0 | 0 | 0 | no effect on blood pCO2 levels |  |  |
| C=CCN1C[C@H](C)N([C@@H](c2ccsc2)c2cccc(O)c2)C[C@H]1C [Compound 5, (+)-3-((R)-((2S,5R)-4-allyl-2,5-dimethyl-1-piperazinyl)(3-thienyl)methyl)phenol] | 0.75 | 113 | 1.73 | 79.3 | 1.3 | 20 | 20 | 20 |  | 0.03 | 0.067 | 120 | 78 | 45 |  | several of the test subjects died | 2.2 |
| C=CCN1C[C@@H](C)N([C@@H](c2ccsc2)c2cccc(O)c2)C[C@@H]1C (racemic) [Compound 1, (±)3-((R*)-((2R*,5S*)-4-allyl-2,5-dimethyl-1-piperazinyl)(3-thienyl)methyl)phenol] | 0.36 | 1.29 | 1.67 | 881 | 30 | 19.5 | 10.5 | 1 |  | 0.21 | 0.98 | 21 | 25 | 7 |  |  | 4.7 |
| C=CCN1C[C@@H](C)N([C@@H](c2ccsc2)c2cccc(O)c2)C[C@@H]1C (relative stereo) [Compound 1, (±)3-((R*)-((2R*,5S*)-4-allyl-2,5-dimethyl-1-piperazinyl)(3-thienyl)methyl)phenol] |  |  |  |  |  |  |  |  | only limited analgesia for a short time |  |  |  |  |  |  |  |  |
| C=CCN1C[C@@H](C)N([C@H](c2ccsc2)c2cccc(O)c2)C[C@@H]1C [Compound 6, (−)3-((S)-((2R,5S)-4-allyl-2,5-dimethyl-1-piperazinyl)(3-thienyl)methyl)phenol] | 60 | 13 | 16 | > 1000 | 282 | 0 | 0 | 0 | no measurable analgesic effect | > 6 | > 6 | 0 | 0 | 0 | no effect on blood pCO2 levels |  |  |
| C=CCN1C[C@H](C)N([C@@H](c2ccsc2)c2cccc(O)c2)C[C@H]1C (racemic) [Compound 4, (±)3-((R*)-((2S*,5R*)-4-allyl-2,5-dimethyl-1-piperazinyl)(3-thienyl)methyl)phenol] | 0.18 | 14.9 | 2.34 | 170 | 58 | 20 | 20 | 10 |  | 0.05 | 0.12 | 117 | 91 | 43 |  | several of the test subjects died | 2.4 |
